The text below walks through data of patent US12478617B2, “Lipidated peptide inhibitors of interleukin-23 receptor” (JANSSEN BIOTECH, INC., priority 2021, dated 2025).

SMILES strings stand for the structures. Starred links: 1 amine or outer side, 2 acyl side, 3 side chain; linkers in the order of their positions; H or OH if unused. Positions of bridges follow the written chain, without caps; N, C: chain ends. Non-standard residues stand in square brackets, D forms with d. Residues, ends and D or L forms follow the SMILES beside them. Groups on a side chain read outwards from the residue. *: point of attachment. εLys(α-Octadecanedioyl) = O=C(O)CCCCCCCCCCCCCCCCC(=O)N[C@@H](CCCCN*)C(=O)O; Trp(7-Me) = Cc1cccc2c(C[C@H](N)C(=O)O)c[nH]c12; d(γGlu) = O=C(O)[C@@H](CCC(=O)[*:2])N[*:1]; C18 diacid = O=C(O)CCCCCCCCCCCCCCCCC(=O)*; γGlu = O=C(O)[C@H](CCC(=O)[*:2])N[*:1]; 2Nal = N[C@@H](Cc1ccc2ccccc2c1)C(=O)O; AEF = NCCOc1ccc(C[C@H](N)C(=O)O)cc1; PEG6 = NCCOCCOCCOCCOCCOCCOCCC(=O)O; 3Pal = N[C@@H](Cc1cccnc1)C(=O)O; NMeK = CN[C@@H](CCCCN)C(=O)O; Pen = CC(C)(S)[C@H](N)C(=O)O; Thp = NC1(C(=O)O)CCOCC1; AEEA = NCCOCCOCC(=O)O; Sar = CNCC(=O)O

In the assay the target is T1, IL-23R (Homo sapiens, UniProt Q5VWK5).
T1 construct: HEK293 cells containing IL-23R, IL-12RP31 and a firefly luciferase reporter gene driven by a STAT-inducible promoter (Promega); host or cells: HEK293
T1 sequence (Q5VWK5 24-629): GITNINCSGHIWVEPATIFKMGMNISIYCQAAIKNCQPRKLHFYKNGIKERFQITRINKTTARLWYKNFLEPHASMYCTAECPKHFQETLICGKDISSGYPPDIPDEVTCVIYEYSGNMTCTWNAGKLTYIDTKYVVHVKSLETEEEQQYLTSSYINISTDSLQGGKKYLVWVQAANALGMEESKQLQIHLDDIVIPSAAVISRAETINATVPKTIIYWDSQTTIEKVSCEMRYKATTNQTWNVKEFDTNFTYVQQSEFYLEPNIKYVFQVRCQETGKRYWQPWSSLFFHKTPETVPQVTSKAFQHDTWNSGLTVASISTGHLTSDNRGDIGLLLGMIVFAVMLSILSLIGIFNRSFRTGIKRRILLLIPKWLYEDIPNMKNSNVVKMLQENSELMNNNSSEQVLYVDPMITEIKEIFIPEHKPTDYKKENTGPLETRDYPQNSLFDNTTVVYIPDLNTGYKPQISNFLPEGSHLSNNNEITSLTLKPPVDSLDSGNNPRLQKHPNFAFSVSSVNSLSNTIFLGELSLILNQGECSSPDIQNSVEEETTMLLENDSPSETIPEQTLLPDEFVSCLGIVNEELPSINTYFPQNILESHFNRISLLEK
Briefly: IL23R Reporter Assay. Format: cell-based. The text has this:
IL-23 binding to IL-23 receptors results in the activation of the Signal Transducer and Activator of Transcription 3 (STAT3) by phosphorylation and downstream signaling events. Accordingly. the ability of the inhibitors described herein to block IL-23 action can be assessed by monitoring the status of STAT3 activation in response to IL-23. This may be accomplished in reporter cell assays or in intact cells such as peripheral blood mononuclear cells (PBMCs).
Compounds were serially diluted in 100% (v/v) DMSO) and plated using an Echo acoustic dispenser (Labcyte) into 1536-well non-treated black assay plates (Corning #9146). […] After 5 h at 37° C., 5% CO2, 95% relative humidity, cells were placed at 20° C. and treated with BioGlo reagent (Promega) according to the Manufacturer's instructions. Luminescence was measured on a Pherastar FSX (BMG LabTech).
`CC(=O)NCCCC[C@@H]1NC(=O)[C@H](Cc2c[nH]c3c(C)cccc23)NC(=O)[C@H]([C@@H](C)O)NC(=O)[C@H](CC(N)=O)NC(=O)[C@@H](NC(C)=O)C(C)(C)SSC(C)(C)[C@@H](C(=O)N[C@@H](Cc2ccc(OCCN)cc2)C(=O)N[C@@H](Cc2ccc3ccccc3c2)C(=O)NC2(C(=O)N[C@@H](CCCCNC(C)=O)C(=O)N[C@@H](CC(N)=O)C(=O)N[C@@H](Cc3cccnc3)C(=O)N(C)CC(=O)NCCOCCOCC(=O)NCCOCCOCC(=O)NCCCC[C@H](NC(=O)CCCCCCCCCCCCCCCCC(=O)O)C(=O)O)CCOCC2)NC1=O` [Example 46, MeCO-Pen*-N-T-7MeW-K(Ac)-Pen*-AEF-2Nal-THP-K(Ac)-N-3Pya-Sar-PEG2PEG2eKC18OH-COOH] (Ac-[Pen]NT[Trp(7-Me)]K(Ac)[Pen][AEF][2Nal][Thp]K(Ac)N[3Pal][Sar][AEEA][AEEA]-{εLys(α-Octadecanedioyl)}; disulfide 1-6) yielded an IC50 of 0.26 nM.
The compound `CC(=O)NCCCC[C@@H]1NC(=O)[C@H](Cc2c[nH]c3c(C)cccc23)NC(=O)[C@H]([C@@H](C)O)NC(=O)[C@H](CCCCNC(=O)COCCOCCNC(=O)COCCOCCNC(=O)CC[C@H](NC(=O)CCCCCCCCCCCCCCCCC(=O)O)C(=O)O)NC(=O)[C@@H](NC(=O)[C@@H](CCCNC(=N)N)NC(C)=O)C(C)(C)SSC(C)(C)[C@@H](C(=O)N[C@@H](Cc2ccc(OCCN)cc2)C(=O)N[C@@H](Cc2ccc3ccccc3c2)C(=O)NC2(C(=O)N[C@@H](CCCCNC(C)=O)C(=O)N[C@@H](CC(N)=O)C(=O)N[C@@H](Cc3cccnc3)C(=O)N(C)CC(N)=O)CCOCC2)NC1=O` [Example 50, MeCO-r-Pen*-K(PEG2PEG2gEC18OH)-T-7MeW-K(Ac)-Pen*-AEF-2Nal-THP-K(Ac)-N-3Pya-Sar-CONH2] (Ac-[dR][Pen]K([AEEA-AEEA-γGlu-C18 diacid])T[Trp(7-Me)]K(Ac)[Pen][AEF][2Nal][Thp]K(Ac)N[3Pal][Sar]-NH2; disulfide 2-7) returned an IC50 of 0.1 nM.
`CC(=O)NCCCC[C@@H]1NC(=O)[C@H](Cc2c[nH]c3c(C)cccc23)NC(=O)[C@H]([C@@H](C)O)NC(=O)[C@H](CCCCNC(=O)COCCOCCNC(=O)CC[C@H](NC(=O)CCCCCCCCCCCCCCCCC(=O)O)C(=O)O)NC(=O)[C@@H](NC(=O)[C@@H](CCCNC(=N)N)NC(C)=O)C(C)(C)SSC(C)(C)[C@@H](C(=O)N[C@@H](Cc2ccc(OCCN)cc2)C(=O)N[C@@H](Cc2ccc3ccccc3c2)C(=O)NC2(C(=O)N[C@@H](CCCCNC(C)=O)C(=O)N[C@@H](CC(N)=O)C(=O)N[C@@H](Cc3cccnc3)C(=O)N(C)CC(N)=O)CCOCC2)NC1=O` [Example 52, MeCO-r-Pen*-K(PEG2gE C18OH)-T-7MeW-K(Ac)-Pen*-AEF-2Nal-THP-K(Ac)-N-3Pya-Sar-CONH2] (Ac-[dR][Pen]K([AEEA-γGlu-C18 diacid])T[Trp(7-Me)]K(Ac)[Pen][AEF][2Nal][Thp]K(Ac)N[3Pal][Sar]-NH2; disulfide 2-7): the IC50 came out at 0.15 nM.
For `CC(=O)NCCCC[C@@H]1NC(=O)[C@H](Cc2c[nH]c3c(C)cccc23)NC(=O)[C@H]([C@@H](C)O)NC(=O)[C@H](CC(N)=O)NC(=O)[C@@H](NC(=O)[C@@H](CCCNC(=N)N)NC(C)=O)C(C)(C)SSC(C)(C)[C@@H](C(=O)N[C@@H](Cc2ccc(OCCN)cc2)C(=O)N[C@@H](Cc2ccc3ccccc3c2)C(=O)NC2(C(=O)N[C@@H](CCCCNC(C)=O)C(=O)N[C@@H](CC(N)=O)C(=O)N[C@@H](Cc3cccnc3)C(=O)N(C)[C@@H](CCCCNC(=O)COCCOCCNC(=O)COCCOCCNC(=O)CC[C@H](NC(=O)CCCCCCCCCCCCCCCCC(=O)O)C(=O)O)C(N)=O)CCOCC2)NC1=O` [Example 54, MeCO-r-Pen*-N-T-7MeW-K(Ac)-Pen*-AEF-2Nal-THP-K(Ac)-N-3Pya-NMeK(PEG2PEG2gEC18OH)-CONH2] (Ac-[dR][Pen]NT[Trp(7-Me)]K(Ac)[Pen][AEF][2Nal][Thp]K(Ac)N[3Pal][NMeK]([AEEA-AEEA-γGlu-C18 diacid])-NH2; disulfide 2-7) the value was 0.13 nM.
For the compound `CC(=O)NCCCC[C@@H]1NC(=O)[C@H](Cc2c[nH]c3c(C)cccc23)NC(=O)[C@H]([C@@H](C)O)NC(=O)[C@H](CC(N)=O)NC(=O)[C@@H](NC(=O)[C@@H](CCCNC(=N)N)NC(C)=O)C(C)(C)SSC(C)(C)[C@@H](C(=O)N[C@@H](Cc2ccc(OCCN)cc2)C(=O)N[C@@H](Cc2ccc3ccccc3c2)C(=O)NC2(C(=O)N[C@@H](CCCCNC(=O)COCCOCCNC(=O)COCCOCCNC(=O)CC[C@@H](NC(=O)CCCCCCCCCCCCCCCCC(=O)O)C(=O)O)C(=O)N[C@@H](CC(N)=O)C(=O)N[C@@H](Cc3cccnc3)C(=O)N(C)CC(N)=O)CCOCC2)NC1=O` [Example 55, MeCO-r-Pen*-N-T-7MeW-K(Ac)-Pen*-AEF-2Nal-THP-K(PEG2PEG2DgEC18OH)-N-3Pya-Sar-CONH2] (Ac-[dR][Pen]NT[Trp(7-Me)]K(Ac)[Pen][AEF][2Nal][Thp]K([AEEA-AEEA-d(γGlu)-C18 diacid])N[3Pal][Sar]-NH2; disulfide 2-7), half-maximal inhibition (IC50) was put at 0.13 nM.
The value for `CC(=O)NCCCC[C@@H]1NC(=O)[C@H](Cc2c[nH]c3c(C)cccc23)NC(=O)[C@H]([C@@H](C)O)NC(=O)[C@H](CC(N)=O)NC(=O)[C@@H](NC(=O)[C@@H](CCCNC(=N)N)NC(C)=O)C(C)(C)SSC(C)(C)[C@@H](C(=O)N[C@@H](Cc2ccc(OCCN)cc2)C(=O)N[C@@H](Cc2ccc3ccccc3c2)C(=O)NC2(C(=O)N[C@@H](CCCCNC(=O)COCCOCCNC(=O)COCCOCCNC(=O)[C@H]3CCCN3C(=O)CCCCCCCCCCCCCCCCC(=O)O)C(=O)N[C@@H](CC(N)=O)C(=O)N[C@@H](Cc3cccnc3)C(=O)N(C)CC(N)=O)CCOCC2)NC1=O` [Example 57, MeCO-r-Pen*-N-T-7MeW-K(Ac)-Pen*-AEF-2Nal-THP-K(PEG2PEG2pC18OH)-N-3Pya-Sar-CONH2] (Ac-[dR][Pen]NT[Trp(7-Me)]K(Ac)[Pen][AEF][2Nal][Thp]K([AEEA-AEEA-dP-C18 diacid])N[3Pal][Sar]-NH2; disulfide 2-7) was 0.3 nM.
`CC(=O)NCCCC[C@@H]1NC(=O)[C@H](Cc2c[nH]c3c(C)cccc23)NC(=O)[C@H]([C@@H](C)O)NC(=O)[C@H](CC(N)=O)NC(=O)[C@@H](NC(=O)[C@@H](CCCCNC(=O)CCOCCOCCOCCOCCOCCOCCNC(=O)CC[C@H](NC(=O)CCCCCCCCCCCCCCCCC(=O)O)C(=O)O)NC(C)=O)C(C)(C)SSC(C)(C)[C@@H](C(=O)N[C@@H](Cc2ccc(OCCN)cc2)C(=O)N[C@@H](Cc2ccc3ccccc3c2)C(=O)NC2(C(=O)N[C@@H](CCCCNC(C)=O)C(=O)N[C@@H](CC(N)=O)C(=O)N[C@@H](Cc3cccnc3)C(=O)N(C)CC(N)=O)CCOCC2)NC1=O` [Example 60, MeCO-k(PEG6 gE C18OH)-Pen*-N-T-7MeW-K(Ac)-Pen*-AEF-2Nal-THP-K(Ac)-N-3Pya-Sar-CONH2] (Ac-[dK]([PEG6-γGlu-C18 diacid])[Pen]NT[Trp(7-Me)]K(Ac)[Pen][AEF][2Nal][Thp]K(Ac)N[3Pal][Sar]-NH2; disulfide 2-7) came in with an IC50 of 0.042 nM.
Consider `CC(=O)NCCCC[C@@H]1NC(=O)[C@H](Cc2c[nH]c3c(C)cccc23)NC(=O)[C@H]([C@@H](C)O)NC(=O)[C@H](CCCCNC(=O)CCOCCOCCOCCOCCOCCOCCNC(=O)CC[C@H](NC(=O)CCCCCCCCCCCCCCCCC(=O)O)C(=O)O)NC(=O)[C@@H](NC(=O)[C@@H](CCCNC(=N)N)NC(C)=O)C(C)(C)SSC(C)(C)[C@@H](C(=O)N[C@@H](Cc2ccc(OCCN)cc2)C(=O)N[C@@H](Cc2ccc3ccccc3c2)C(=O)NC2(C(=O)N[C@@H](CCCCNC(C)=O)C(=O)N[C@@H](CC(N)=O)C(=O)N[C@@H](Cc3cccnc3)C(=O)N(C)CC(N)=O)CCOCC2)NC1=O` [Example 63, MeCO-r-Pen*-K(PEG6gEC18OH)-T-7MeW-K(Ac)-Pen*-AEF-2Nal-THP-K(Ac)-N-3Pya-Sar-CONH2] (Ac-[dR][Pen]K([PEG6-γGlu-C18 diacid])T[Trp(7-Me)]K(Ac)[Pen][AEF][2Nal][Thp]K(Ac)N[3Pal][Sar]-NH2; disulfide 2-7), for which it took 0.13 nM to reach half-maximal inhibition (IC50).
Regarding `CC(=O)NCCCC[C@@H]1NC(=O)[C@H](Cc2c[nH]c3c(C)cccc23)NC(=O)[C@H]([C@@H](C)O)NC(=O)[C@H](CC(N)=O)NC(=O)[C@@H](NC(=O)[C@@H](CCCNC(=N)N)NC(C)=O)C(C)(C)SSC(C)(C)[C@@H](C(=O)N[C@@H](Cc2ccc(OCCN)cc2)C(=O)N[C@@H](Cc2ccc3ccccc3c2)C(=O)NC2(C(=O)N[C@@H](CCCCNC(=O)COCCOCCNC(=O)COCCOCCNC(=O)[C@@H]3CCCN3C(=O)[C@@H]3CCCN3C(=O)[C@@H]3CCCN3C(=O)CCCCCCCCCCCCCCCCC(=O)O)C(=O)N[C@@H](CC(N)=O)C(=O)N[C@@H](Cc3cccnc3)C(=O)N(C)CC(N)=O)CCOCC2)NC1=O` [Example 65, MeCO-r-Pen*-N-T-7MeW-K(Ac)-Pen*-AEF-2Nal-THP-K(PEG2PEG2PPPC18OH)-N-3Pya-Sar-CONH2] (Ac-[dR][Pen]NT[Trp(7-Me)]K(Ac)[Pen][AEF][2Nal][Thp]K([AEEA-AEEA-Pro-Pro-Pro-C18 diacid])N[3Pal][Sar]-NH2; disulfide 2-7), inhibition was half-maximal at 0.19 nM (IC50).
